Experimental data taken from ChEMBL document CHEMBL1140979, “Synthesis and antiamoebic activity of metronidazole thiosemicarbazone analogues” (Eur J Med Chem, 2008).
pIC50: −log10 of the molar value.

System: Entamoeba histolytica
Experiment: Antiamoebic activity against Entamoeba histolytica HM1:IMSS after 72 hrs by microdilution method
Format: functional, organism-based

Compound | pIC50
Cc1ccc(NC(=S)N/N=C/c2ccc(/C=C/c3ncc([N+](=O)[O-])n3CCO)cc2)cc1 | 6.25
CC1CCN(C(=S)N/N=C/c2ccc(/C=C/c3ncc([N+](=O)[O-])n3CCO)cc2)CC1 | 5.95
O=[N+]([O-])c1cnc(/C=C/c2ccc(/C=N/NC(=S)N3CCC(c4ccccc4)CC3)cc2)n1CCO | 5.90
O=[N+]([O-])c1cnc(/C=C/c2ccc(/C=N/NC(=S)N3CCCc4ccccc43)cc2)n1CCO | 5.93
O=[N+]([O-])c1cnc(/C=C/c2ccc(/C=N/NC(=S)NCc3ccccc3Cl)cc2)n1CCO | 5.44
O=[N+]([O-])c1cnc(/C=C/c2ccc(/C=N/NC(=S)NC3CCCCC3)cc2)n1CCO | 5.82
Cc1ccccc1NC(=S)N/N=C/c1ccc(/C=C/c2ncc([N+](=O)[O-])n2CCO)cc1 | 5.80
O=[N+]([O-])c1cnc(/C=C/c2ccc(/C=N/NC(=S)N3CCCCCC3)cc2)n1CCO | 5.79
CN(Cc1ccccc1)C(=S)N/N=C/c1ccc(/C=C/c2ncc([N+](=O)[O-])n2CCO)cc1 | 5.63
O=[N+]([O-])c1cnc(/C=C/c2ccc(/C=N/NC(=S)N3CCCC3)cc2)n1CCO | 5.72
O=[N+]([O-])c1cnc(/C=C/c2ccc(/C=N/NC(=S)NC3CCCCCCC3)cc2)n1CCO | 6.10
